Results on one compound are retold here after article PMC10222839, “Development of Novel Small-Molecule Activators of Pyruvate Kinase Muscle Isozyme 2, PKM2, to Reduce Photoreceptor Apoptosis” (Pharmaceuticals, 2023).

Converted amounts (≈) assume the structure as drawn.

The target in series [1] is T1, pyruvate kinase (PK) activity in rat retina (Rattus norvegicus, UniProt P11980).
T1 construct: the retina from each rat eye was dissected from the RPE-choroid, homogenized, and lysed; from tissue; host or cells: retina of adult Brown-Norway rats
The experiment in a line: PK activity in rat retina after intravitreal injection. The series is classed as in vivo. As to conditions: increasing concentrations, intravitreal injection in rats, retina 4 h. Here is the method: The intravitreal injection of medications has revolutionized how numerous retinal diseases are treated and are ever-increasing in ophthalmic clinical practice. Therefore, to assess the ability of these small molecules to activate PK in vivo in the rat retina, we utilized this well-accepted drug delivery method. Two microliters of each respective compound at 850 μM or DMSO were intravitreally injected into rat eyes. The vitreous volume of the rat eye was assumed to be 15 μL, giving a final intravitreal concentration of approximately 100 μM for each compound after injection. Retinas were harvested four hours after injection, lysed, and assayed for PK activity as previously described. The eyes treated with DMSO served as the control upon which PK activation was based.
Two microliters of each respective compound at 8.5 μM (final vitreous concentration of 1 μM) or DMSO was intravitreally injected into rat eyes, and the PK activity was assessed four hours later.
Animals. Intravitreal injections of various small-molecule PKM2 activators or vehicle (DMSO) were performed in Brown-Norway adult rats. The rats were anesthetized with ketamine (90 mg/mL) and xylazine (10 mg/mL) and their pupils dilated with topical phenylephrine (2.5%) and tropicamide (1%) as described previously. A sclerotomy was created with a 25-gauge microvitreoretinal blade (Walcott Rx Products, Ocean View, NJ, USA) just posterior to the limbus. A blunt 35-gauge cannula was inserted through this sclerotomy into the vitreous cavity to deliver 2 μL of different concentrations of small-molecule activator or DMSO. This injection volume produces minimal reflux with adequate reproducibility. Fifteen microliters of vitreous volume was assumed in rats to calculate the intravitreal concentrations of the compound after injection. As we have previously described, left eyes were treated with small-molecular activator, while right eyes were treated with DMSO, which served as the control upon which pyruvate kinase activation was based. Four hours later, the retina from each rat eye was dissected from the RPE-choroid, homogenized, and lysed in RIPA Lysis and Extraction Buffer with protease inhibitors. The pyruvate kinase (PK) activity assay, as described above, was performed using 4 to 8 microliters of rat retinal lysate, similar to what we and others have previously described. Analogous to the cell culture assays, the total protein of the lysate was used to normalize pyruvate kinase activity.

A short description of series [2]: Aqueous solubility (Eurofins Panlabs, HPLC-UV/Vis). The series is classed as physicochemical. Conditions: aqueous buffer, kinetic from dmso stock; PBS, pH 7.4, 24 h, room temperature (Table 1). Here is the method:
In brief, each compound was tested at a concentration of 200 μM in PBS, pH 7.4, and room temperature. […] The area of the principal peak in a calibration standard for each compound (200 μM) in organic solvent (60/40 v/v% methanol: water) was compared to the area of the corresponding peak in the PBS sample [42]. Compounds 16–21 underwent solubility testing at Analiza (Cleveland, OH, USA), a contract research organization. Five hundred microliters of PBS, pH 7.4 was added to each amount of compound provided. The samples were vortexed briefly and then placed on a rotary shaker at 200 RPM for 24 h at ambient temperature. Thereafter, the samples were vacuum filtered through a 0.45-micron membrane, and the filtrates were injected into a nitrogen detector for quantification. The nitrogen detector was calibrated using standards, and the filtrates were quantitated based on the calibration curve.

Series [3] has as its target T2, pyruvate kinase (PK) activity in 661W cells (Mus musculus, UniProt P52480).
T2 construct: endogenous in cells; host or cells: 661W photoreceptor-like cells
The experiment in a line: PK activity in 661W cell lysates after 2 h incubation with activator. The series is classed as cell-based. The protocol: The potency and efficacy of each compound, 1 through 5, was assessed with recombinant human PKM2 using an enzyme-coupled assay that uses lactate dehydrogenase and measures the reduction in NADH via absorbance at 340 nm. […] To assess the ability of this pyridazinoindolone series of compounds to cross cellular membranes and increase PK activity, we utilized 661W cells, which are immortalized photoreceptor-like cells that express cone markers.
Cell culture. Next, 661W cells were incubated with either DMSO or different concentrations of small-molecule PKM2 activator for 2 h, lysed and homogenized in RIPA Lysis and Extraction Buffer (Thermo Fisher, Waltham, MA, USA, Cat No. 89900) with protease inhibitors (Complete-Mini, Roche Diagnostics, Indianapolis, IN, USA), and centrifuged at 10,000 rpm for 10 min to remove cellular debris. The supernatant (4–8 μL) was then used to assess the pyruvate kinase activity as described above. The total protein content was determined using the Pierce BCA protein assay kit (Thermo Fisher, Waltham, MA, USA, Cat No. 23225) with the Pierce™ Bovine Serum Albumin Standard Pre-Diluted Set (Thermo Fisher, Waltham, MA, USA, Cat No. 23208) and used to normalize activity as described previously.

The test system of series [4] is caspase 8 activation in 661W cells. Kind of series: Caspase 8 activity assay in 661W cells (Caspase-Glo 8). The series is classed as cell-based. Here is the method: (§1) To be confident the pyridazinoindolone core could be utilized in future medicinal chemistry efforts, its photoreceptor neuroprotective effect was assessed. […] Fas signaling has a critical role in caspase activation and photoreceptor apoptosis after experimental retinal detachment. 661W cells die via caspase-mediated mechanisms, and the Fas-ligand (FasL) treatment of these cells leads to the activation of caspases and subsequent death, analogous to the in vivo experimental retinal detachment model. Furthermore, similar to photoreceptors, 661W cells express PKM2 (Figure 4a), and these cells have been used to garner information on the role of metabolism in photoreceptor degeneration. As such, this is a suitable in vitro model of photoreceptor stress that can be utilized to assess the consequences of reprogramming metabolism by pharmacologically activating PKM2 [9]. 661W cells were treated with FasL and either compound 2 or vehicle (DMSO).
(§2) Caspase 8 and caspase 3/7 activity was measured using luminescent assay kits (Caspase-Glo 8 and 3/7 Assay Systems, Promega, Madison, WI, USA, Cat Nos. G8200 and G8090, respectively). […] As previously published, caspase activity was measured 8 h after treatment by incubating cells with substrate for 1 h as per the manufacturer’s instructions. A plate reader luminometer (BMG Labtech, Inc., Cary, NC, USA) assessed luminescence.

The subject of series [5] is caspase 3 and 7 activation in 661W cells. Kind of series: Caspase 3/7 activity assay in 661W cells (Caspase-Glo 3/7). The series is classed as cell-based. The protocol:
as §1, §2

The mark [6] stands for this setting: no FasL, concentration near AC50 or more than 10-fold greater.

T2 sequence (P52480 whole entry): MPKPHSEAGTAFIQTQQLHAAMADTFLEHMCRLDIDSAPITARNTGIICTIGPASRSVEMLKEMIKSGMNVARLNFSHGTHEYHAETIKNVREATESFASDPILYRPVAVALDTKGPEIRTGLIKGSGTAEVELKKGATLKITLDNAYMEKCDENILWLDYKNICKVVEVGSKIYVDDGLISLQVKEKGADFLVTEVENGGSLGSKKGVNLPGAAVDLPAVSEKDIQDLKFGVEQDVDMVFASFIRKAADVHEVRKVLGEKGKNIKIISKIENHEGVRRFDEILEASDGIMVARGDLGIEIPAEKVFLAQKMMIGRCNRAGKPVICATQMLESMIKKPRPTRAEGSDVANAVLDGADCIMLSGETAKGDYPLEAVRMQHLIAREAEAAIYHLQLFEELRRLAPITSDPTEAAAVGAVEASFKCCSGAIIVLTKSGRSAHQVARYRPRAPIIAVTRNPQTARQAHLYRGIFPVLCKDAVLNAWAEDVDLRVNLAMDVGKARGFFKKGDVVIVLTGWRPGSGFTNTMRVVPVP
T1 sequence (P11980 1-531 isoform P11980-2): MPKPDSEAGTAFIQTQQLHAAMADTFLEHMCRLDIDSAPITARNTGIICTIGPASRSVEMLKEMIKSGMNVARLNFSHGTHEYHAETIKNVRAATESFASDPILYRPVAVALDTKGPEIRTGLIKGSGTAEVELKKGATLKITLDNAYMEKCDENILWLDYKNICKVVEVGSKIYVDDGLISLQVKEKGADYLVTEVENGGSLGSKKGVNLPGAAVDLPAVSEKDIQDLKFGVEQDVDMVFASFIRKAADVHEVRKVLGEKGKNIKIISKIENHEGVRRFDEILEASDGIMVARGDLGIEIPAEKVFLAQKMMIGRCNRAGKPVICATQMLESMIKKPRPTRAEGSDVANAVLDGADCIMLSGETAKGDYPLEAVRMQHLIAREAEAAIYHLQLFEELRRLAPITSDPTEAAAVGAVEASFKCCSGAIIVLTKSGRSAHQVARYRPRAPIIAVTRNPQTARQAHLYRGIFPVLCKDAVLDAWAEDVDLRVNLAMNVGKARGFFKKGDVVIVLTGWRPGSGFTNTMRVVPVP

For the compound `Cn1c2cc([S+](C)[O-])ccc2c2cnn(Cc3cccc(N)c3)c(=O)c21` (stereo not drawn) [Compound 2], the AC50 (as a rule, the concentration at which the activity in the assay is half-maximal) in series [1] (read-out: in vivo AC50) was 0.299 ± 0.042 µM; in series [3] (n = 3), 0.12 ± 0.045 µM. The Emax was found to be 183 ± 4% in series [1] (rat, normalized to DMSO, read-out: in vivo PK activity (maximum activation)) and 355 ± 26% in series [3] (n = 3, read-out: 661W Cells Max Activation). Moreover, in series [2], the solubility – broadly, how much of the substance goes into solution per volume – at 24 h was 99.8 µM (≈ 36.6 µg/mL). Further, in series [4] (in presence of 500 ng/mL FasL, all concentrations tested, 8 h, versus DMSO), the “caspase 8 activation” value is listed as “significantly decreased”. In addition, the “caspase 8 activity, compound alone” value in series [4] (setting [6]) is on record as “no significant effect”. Besides, the “caspase 3 and 7 activation” value in series [5] (in presence of 500 ng/mL FasL, highest concentration tested, 8 h, versus DMSO) was “significantly decreased”. Further, in series [5] (setting [6]), the “caspase 3 and 7 activity, compound alone” value is reported as “no significant effect”.
